Reference: patent publication US20210035672A1, “METHOD AND […] FOR INDIVIDUALIZED ADMINISTRATION OF MEDICAMENTS FOR […] WITHIN A T[…]” (University Of Maryland, Baltimore, priority 2018, published 2021)

What was measured:
[1] = Population pharmacokinetics of vancomycin in neonates (hierarchical Bayesian one-compartment model); format: in vivo
Source text: Briefly, in step 305, a one-compartment linear disposition model with zero order input (one hour intravenous infusion) and first-order elimination was used to describe the data collected in step 301. In step 303 Weight (Wt) and estimated glomerular filtration rate (EGFR) were included as covariates on clearance (CL), and weight was included as covariate on volume of distribution (V). Back in step 305, a lognormal distribution was used to describe the between-subject-variability (BSV) in model parameter estimates CL and V, as expressed in Equation 8 and Equation 9.
where CLi and Vi are the true parameters for the individual, CLtypical and Vtypical are the population value of the parameters, and ηCL and ηv denote the deviation between the typical value of the parameters and the true parameter value of an individual. The coefficient that describes the relationship between EGFR and CLtypical is denoted by CLEGFR. […] In Table 1, PM indicates posterior median; LCI indicates lower credible interval; and UCI indicates upper credible interval. In other embodiments, based on different datasets or different training approaches, the parameter values are expected to differ to some degree.

[2] = cited from earlier work

## CN[C@H](CC(C)C)C(=O)N[C@H]1C(=O)N[C@@H](CC(N)=O)C(=O)N[C@H]2C(=O)N[C@H]3C(=O)N[C@H](C(=O)N[C@H](C(=O)O)c4cc(O)cc(O)c4-c4cc3ccc4O)[C@H](O)c3ccc(c(Cl)c3)Oc3cc2cc(c3O[C@@H]2O[C@H](CO)[C@@H](O)[C@H](O)[C@H]2O[C@H]2C[C@](C)(N)[C@H](O)[C@H](C)O2)Oc2ccc(cc2Cl)[C@H]1O [vancomycin]
[1]; in vivo
  Interindividual variability CL, posterior median: 22.9 % CV
  Interindividual variability V, posterior median: 15.4 % CV
  Residual variability, proportional, posterior median: 17.3 % CV
[1]; typical individual 2.9 kg, estimated glomerular filtration rate of 30 mL/min per 1.73 m^2, one hour intravenous infusion
  CLtypical, posterior median: 0.167 L/h
[2]; current practice
  patients with AUC0-24 hr exceeding 600: over 30%
[2]; with TDM
  final target attainment: ~45%
[2]; with dosing nomograms, studies across the US and Europe
  neonates that initially achieve recommended target concentrations: 37%
